From patent publication US11780849B2, “Imino sulfanone inhibitors of ENPP1” (Volastra Therapeutics, Inc., priority 2020, dated 2023) come the findings set out here.

Like-named read-outs stand apart in the source and are kept apart here.

In assay [1] the target is ENPP1 on MDA-MB-231 cells (Homo sapiens (Human), UniProt P22413). The experiment in a line: Assay 3: inhibition of ENPP1 hydrolysis of AMP p-nitrophenyl ester on MDA-MB-231 cells.
Protocol: Hydrolysis of the p-nitrophenyl ester of AMP (pNP-AMP), an isostere of ATP, is selectively catalyzed by ENPP1 in the supernatant of MDA-MB-231 cell cultures. Inhibition of the hydrolysis of pNP-AMP by MDA-MB-231 at pH 7.4 and 37° C., is a good model of physiologically relevant activity of membrane-bound ENPP1 at disease-relevant expression levels.
MDA-MB-231 cells were harvested using TypLE Express Enzyme digestion and suspended in 100 μL of Leibovitz's L-15 Medium, 20% FBS, seeding the cells in a 96-well assay plate with 4.5×10^4 cells/well. Cells were incubated at 37° C. with 1% CO2 for 24 h. In a separate dilution plate, 2× of top dose of compound was prepared in phenol-red free 1640 medium without FBS and then 1:3 serial diluted in the same medium. The cell culture medium of L15 medium was aspirated carefully and cells were washed with PBS once, and 50 μL per well of test compound or DMSO blank were added to the assay plate. Substrate mix (50 μL; 0.5 mM pNP-AMP in phenol-red free 1640 media without FBS) was added for a pNP-AMP final concentration of 0.25 mM. The system was incubated at 37° C. for 3 h.
Assay [2] has as its target T1, ENPP-1 ECD (Homo sapiens (Human), UniProt P22413). Description: Assay 2: inhibition of ENPP1 hydrolysis of 2′,3′-cGAMP (AMP-Glo, […] enzyme).
Protocol: Assay 2: Compared to the conditions in Assay 1, this assay has a larger dynamic range and ensures the system is under steady-state conditions by reducing the enzyme concentration in the assay.
Test compounds were plated in a 3× dilution scheme in a 384 well plate. […] AMP Detection solution (10 μL) was added to each well, the plate centrifuged and incubated for 60 min.
For assay [3], the target named is T1, ENPP-1 ECD. Description: Assay 1: inhibition of ENPP1 hydrolysis of 2′,3′-cGAMP (AMP-Glo, […] enzyme).
Protocol: Assay 1: Test compounds were plated in a 3× dilution scheme in a 384 well plate. […] AMP Detection solution (100 μL) was added to each well, the plate centrifuged and incubated for 60 min.
Where [4] appears, read: read-out: Assay 3 (KI, app), apparent KI from IC50 via Cheng/Prusoff, pNP-AMP […], MDA-MB-231 cells, pH 7.4, 37° C., 3 h, unit inferred.
Where [5] appears, read: read-out: Assay 2 (KI), ENPP1 hydrolysis of 2′,3′-cGAMP, AMP-Glo, […] ENPP-1, 24 μM cGAMP.
The mark [6] stands for this setting: read-out: Assay 2 (KI), inhibition of ENPP1 hydrolysis of 2′,3′-cGAMP, no unit in Table 18 (Table 17 legend for this assay uses nM).
[7] abbreviates: Assay 1 (IC50), ENPP1 hydrolysis of 2′,3′-cGAMP, AMP-Glo.
Where [8] appears, read: Assay 1 (IC50), inhibition of ENPP1 hydrolysis of 2′,3′-cGAMP, no unit in Table 18 (Table 17 legend for this assay uses nM).
The mark [9] stands for this setting: Assay 2 (KI), ENPP1 hydrolysis of 2′,3′-cGAMP, AMP-Glo, […] ENPP-1, 24 μM cGAMP.
Where [10] appears, read: Assay 2 (KI), inhibition of ENPP1 hydrolysis of 2′,3′-cGAMP, no unit in Table 18 (Table 17 legend for this assay uses nM).
[11] abbreviates: read-out: Assay 1 (IC50), ENPP1 hydrolysis of 2′,3′-cGAMP, AMP-Glo.
[12] abbreviates: read-out: Assay 1 (IC50), inhibition of ENPP1 hydrolysis of 2′,3′-cGAMP, no unit in Table 18 (Table 17 legend for this assay uses nM).

Sequence of ENPP1 on MDA-MB-231 cells (P22413 whole entry, the tested form may be a part): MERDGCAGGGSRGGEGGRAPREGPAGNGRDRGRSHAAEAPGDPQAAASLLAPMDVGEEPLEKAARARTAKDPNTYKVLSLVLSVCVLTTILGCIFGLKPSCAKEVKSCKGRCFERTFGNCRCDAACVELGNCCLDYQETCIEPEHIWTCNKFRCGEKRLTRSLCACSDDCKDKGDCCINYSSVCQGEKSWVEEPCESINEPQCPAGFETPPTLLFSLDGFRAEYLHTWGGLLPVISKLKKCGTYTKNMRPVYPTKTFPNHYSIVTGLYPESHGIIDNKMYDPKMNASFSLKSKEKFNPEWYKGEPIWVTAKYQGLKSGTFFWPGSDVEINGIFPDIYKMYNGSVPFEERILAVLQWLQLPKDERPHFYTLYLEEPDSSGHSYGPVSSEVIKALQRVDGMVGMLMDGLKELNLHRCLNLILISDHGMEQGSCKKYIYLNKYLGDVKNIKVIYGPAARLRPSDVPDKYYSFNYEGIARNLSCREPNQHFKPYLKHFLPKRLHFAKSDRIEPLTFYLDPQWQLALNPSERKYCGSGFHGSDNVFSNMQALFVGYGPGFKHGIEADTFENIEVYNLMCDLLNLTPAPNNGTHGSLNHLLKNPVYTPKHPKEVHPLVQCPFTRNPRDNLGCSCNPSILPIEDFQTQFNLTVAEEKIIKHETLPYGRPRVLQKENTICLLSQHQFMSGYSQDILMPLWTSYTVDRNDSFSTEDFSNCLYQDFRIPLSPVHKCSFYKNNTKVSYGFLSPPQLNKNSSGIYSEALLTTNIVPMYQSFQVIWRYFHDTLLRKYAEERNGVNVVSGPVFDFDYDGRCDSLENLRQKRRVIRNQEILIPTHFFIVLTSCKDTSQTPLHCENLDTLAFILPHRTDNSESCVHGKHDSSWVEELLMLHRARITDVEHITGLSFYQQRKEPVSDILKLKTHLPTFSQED
T1 sequence (P22413 98-925): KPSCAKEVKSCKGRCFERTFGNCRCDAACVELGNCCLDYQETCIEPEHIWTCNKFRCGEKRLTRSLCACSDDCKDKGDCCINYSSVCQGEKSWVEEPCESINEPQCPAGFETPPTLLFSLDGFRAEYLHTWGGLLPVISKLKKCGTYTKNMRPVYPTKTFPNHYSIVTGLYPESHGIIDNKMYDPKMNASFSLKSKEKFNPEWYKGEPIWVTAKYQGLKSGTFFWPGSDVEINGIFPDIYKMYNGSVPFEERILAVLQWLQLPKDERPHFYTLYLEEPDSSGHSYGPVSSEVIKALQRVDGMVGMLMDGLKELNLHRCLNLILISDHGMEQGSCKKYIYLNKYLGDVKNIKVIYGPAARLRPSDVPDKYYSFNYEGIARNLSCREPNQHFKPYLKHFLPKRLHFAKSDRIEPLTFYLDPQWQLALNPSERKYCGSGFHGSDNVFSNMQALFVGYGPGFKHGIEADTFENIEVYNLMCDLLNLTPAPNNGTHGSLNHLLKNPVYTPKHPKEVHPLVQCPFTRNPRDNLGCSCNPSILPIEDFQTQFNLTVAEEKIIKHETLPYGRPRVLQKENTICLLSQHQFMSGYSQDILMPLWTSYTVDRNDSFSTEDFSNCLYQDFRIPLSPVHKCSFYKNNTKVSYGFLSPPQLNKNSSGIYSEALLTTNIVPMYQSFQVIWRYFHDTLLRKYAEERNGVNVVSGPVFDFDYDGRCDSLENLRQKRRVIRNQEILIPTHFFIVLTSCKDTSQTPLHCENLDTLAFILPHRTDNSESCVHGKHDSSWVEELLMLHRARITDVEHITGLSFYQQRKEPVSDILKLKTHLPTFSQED

As to `COc1cc2ncnc(-c3ccc4c(c3)CN([S@](C)(=N)=O)CC4)c2cc1OC` [Compound 37b], the Ki in assay [1] (setting [4]) was 21 nM; at ENPP-1 ECD [2] (setting [5]), below 3 nM; on ENPP-1 ECD [2] (setting [6]) it was 0.28 nM.
On to `COc1cc2ncnc(N3CCC(CN[S@@](C)(=N)=O)CC3)c2cc1OC` [Compound 94a], for which the Ki in assay [1] (setting [4]) was 46 nM; at ENPP-1 ECD [2] (setting [5]), below 3 nM; on ENPP-1 ECD [2] (setting [6]), 0.78 nM.
Turning to `COc1cc2nccc(Oc3ccc(S(C)(=N)=O)c(F)c3)c2cc1OC` (stereo not shown) [Compound 115, {4-[(6,7-dimethoxyquinolin-4-yl)oxy]-2-fluorophenyl}(imino)methyl-λ^6-sulfanone], the IC50 against ENPP-1 ECD [3] (setting [7]) was 10 to 1000 nM; at ENPP-1 ECD [3] (setting [8]) it was 85 nM. The values for the Ki on ENPP-1 ECD [2] (setting [9]) and on ENPP-1 ECD [2] (setting [10]) were 3 to 300 nM and 13 nM, respectively.
Regarding `COc1cc2nccc(Oc3ccc(S(C)(=N)=O)cc3F)c2cc1OC` (stereo not shown) [Compound 116, {4-[(6,7-dimethoxyquinolin-4-yl)oxy]-3-fluorophenyl}(imino)methyl-λ^6-sulfanone], the IC50 against ENPP-1 ECD [3] (setting [7]) was 10 to 1000 nM; against ENPP-1 ECD [3] (setting [8]), 220 nM. Also, the Ki on ENPP-1 ECD [2] (setting [9]) is 3 to 300 nM; at ENPP-1 ECD [2] (setting [10]) it was 25 nM.
The corresponding values for `COc1ccc2c(Oc3cccc(S(C)(=N)=O)c3)ccnc2c1` (stereo not shown) [Compound 117, imino({3-[(7-methoxyquinolin-4-yl)oxy]phenyl})methyl-λ^6-sulfanone] are 10 to 1000 nM, 180 nM, 3 to 300 nM and 94 nM.
With `COc1cccc2c(Oc3ccc(S(C)(=N)=O)cc3)ccnc12` (stereo not shown) [Compound 118, imino({4-[(8-methoxyquinolin-4-yl)oxy]phenyl})methyl-λ^6-sulfanone], the IC50 is 10 to 1000 nM against ENPP-1 ECD [3] (setting [7]) and 160 nM on ENPP-1 ECD [3] (setting [8]). Besides, the Ki on ENPP-1 ECD [2] (setting [9]) was 3 to 300 nM; on ENPP-1 ECD [2] (setting [10]), 36 nM.
Turning to `COc1ccc2c(Oc3ccc(S(C)(=N)=O)cc3)cnnc2c1` (stereo not shown) [Compound 119, imino({4-[(7-methoxycinnolin-4-yl)oxy]phenyl})methyl-λ^6-sulfanone], the IC50 at ENPP-1 ECD [3] (setting [7]) is 10 to 1000 nM; against ENPP-1 ECD [3] (setting [8]) it was 66 nM. Besides, the Ki on ENPP-1 ECD [2] (setting [9]) was 3 to 300 nM; on ENPP-1 ECD [2] (setting [10]), 17 nM.
Turning to `COc1cc2nccc(Oc3ccc([S@](=N)(=O)C4CC4)cc3)c2cc1F` [Compound 120b], the IC50 on ENPP-1 ECD [3] (setting [11]) is 10 to 1000 nM; on ENPP-1 ECD [3] (setting [12]) it was 37 nM. Also, the figures for the Ki on ENPP-1 ECD [2] (setting [5]) and at ENPP-1 ECD [2] (setting [6]) were 3 to 300 nM and 4.8 nM, respectively.
On to `COc1ccc2c(Oc3ccc(S(C)(=N)=O)cc3)c(C#N)cnc2c1` (stereo not shown) [Compound 121, 4-{4-[imino(methyl)oxo-λ^6-sulfanyl]phenoxy}-7-methoxyquinoline-3-carbonitrile], for which the Ki in assay [1] is 250 nM; on ENPP-1 ECD [2] (setting [9]), 3 to 300 nM; at ENPP-1 ECD [2] (setting [10]) it was 4.2 nM.
The matching figures for `COc1ccc2c(Oc3ccc(S(=N)(=O)CC4CC4)cc3)ccnc2c1` (stereo not shown) [Compound 123, (cyclopropylmethyl)(imino){4-[(7-methoxyquinolin-4-yl)oxy]phenyl}-λ^6-sulfanone]: 60 nM, below 3 nM and 1.5 nM.
Regarding `COc1ccc2c(Oc3ccc(S(C)(=N)=O)cc3)cc(C)nc2c1` (stereo not shown) [Compound 124, imino({4-[(7-methoxy-2-methylquinolin-4-yl)oxy]phenyl})methyl-λ^6-sulfanone], the Ki in assay [1] is 30 nM; at ENPP-1 ECD [2] (setting [9]), below 3 nM; on ENPP-1 ECD [2] (setting [10]), 0.73 nM.
As for `CS(=N)(=O)c1ccc(Oc2ccnc3ccccc23)cc1` (stereo not shown) [Compound 125, imino(methyl)[4-(quinolin-4-yloxy)phenyl]-λ^6-sulfanone], the IC50 against ENPP-1 ECD [3] (setting [7]) is 10 to 1000 nM; against ENPP-1 ECD [3] (setting [8]), 340 nM. The molecule also gave a Ki at ENPP-1 ECD [2] (setting [10]) of 110 nM.
For the molecule `COc1cc2nccc(Oc3ccc(S(C)(=N)=O)cc3)c2cc1Cl` (stereo not shown) [Compound 126, {4-[(6-chloro-7-methoxyquinolin-4-yl)oxy]phenyl}(imino)methyl-λ^6-sulfanone], the IC50 on ENPP-1 ECD [3] (setting [7]) was 10 to 1000 nM; against ENPP-1 ECD [3] (setting [8]) it was 39 nM. The values for the Ki on ENPP-1 ECD [2] (setting [9]) and at ENPP-1 ECD [2] (setting [10]) were 3 to 300 nM and 11 nM, respectively.
Consider `COc1cc2nccc(Oc3ccc(S(C)(=N)=O)nc3)c2cc1OC` (stereo not shown) [Compound 129, {5-[(6,7-dimethoxyquinolin-4-yl)oxy]pyridin-2-yl}(imino)methyl-λ^6-sulfanone], for which the results for the 50% inhibitory concentration (IC50) on ENPP-1 ECD [3] (setting [7]) and on ENPP-1 ECD [3] (setting [8]) were 10 to 1000 nM and 260 nM, respectively. Also, the figures for the Ki on ENPP-1 ECD [2] (setting [9]) and at ENPP-1 ECD [2] (setting [10]) were 3 to 300 nM and 39 nM, respectively.
As for `COc1ccc2c(Oc3ccc(S(=N)(=O)CC(C)(C)O)cc3)ccnc2c1` (stereo not shown) [Compound 132, (2-hydroxy-2-methylpropyl)(imino){4-[(7-methoxyquinolin-4-yl)oxy]phenyl}-λ^6-sulfanone], the results for the Ki (in assay [1]; at ENPP-1 ECD [2] (setting [9]); at ENPP-1 ECD [2] (setting [10])) were 45 nM, below 3 nM and 1.1 nM, respectively.
For the molecule `COc1ccc2c(OCc3cccc([S@](C)(=N)=O)c3)ccnc2c1` [Compound 133b], the IC50 is above 1000 nM on ENPP-1 ECD [3] (setting [11]) and above 100 nM at ENPP-1 ECD [3] (setting [12]). Also, the Ki at ENPP-1 ECD [2] (setting [5]) was 3 to 300 nM; on ENPP-1 ECD [2] (setting [6]), 49 nM.
With `COc1ccc2c(OCc3ccc(S(C)(=N)=O)cc3Br)ccnc2c1` (stereo not shown) [Compound 137, (3-bromo-4-{[(7-methoxyquinolin-4-yl)oxy]methyl}phenyl)(imino)methyl-λ^6-sulfanone], the IC50 against ENPP-1 ECD [3] (setting [7]) was 10 to 1000 nM; at ENPP-1 ECD [3] (setting [8]), 200 nM. The Ki at ENPP-1 ECD [2] (setting [9]) was 3 to 300 nM; on ENPP-1 ECD [2] (setting [10]) it was 38 nM.
The corresponding values for `COc1ccc2c(N3CCC(CCS(C)(=N)=O)CC3)ncnc2c1` (stereo not shown) [Compound 139, imino({2-[1-(7-methoxyquinazolin-4-yl)piperidin-4-yl]ethyl})methyl-λ^6-sulfanone] are 10 to 1000 nM, 15 nM, below 3 nM and 2.4 nM.
On to `COc1cccc2c(N3CCC(CCS(C)(=N)=O)CC3)ccnc12` (stereo not shown) [Compound 140, imino({2-[1-(8-methoxyquinolin-4-yl)piperidin-4-yl]ethyl})methyl-λ^6-sulfanone], for which the IC50 at ENPP-1 ECD [3] (setting [7]) is 10 to 1000 nM; against ENPP-1 ECD [3] (setting [8]), 880 nM. Further, the values for the Ki at ENPP-1 ECD [2] (setting [9]) and on ENPP-1 ECD [2] (setting [10]) were 3 to 300 nM and 180 nM, respectively.
`CS(=N)(=O)CCC1CCN(c2ccnc3ccccc23)CC1` (stereo not shown) [Compound 149, imino(methyl){2-[1-(quinolin-4-yl)piperidin-4-yl]ethyl}-λ^6-sulfanone]: the 50% inhibitory concentration (IC50) against ENPP-1 ECD [3] (setting [8]) was 1400 nM; on ENPP-1 ECD [3] (setting [11]) it was above 1000 nM. In addition, the Ki was above 300 nM on ENPP-1 ECD [2] (setting [9]) and 410 nM at ENPP-1 ECD [2] (setting [10]).
For `COc1cc2ncnc(-c3ccc(CCS(C)(=N)=O)cc3)c2cc1OC` (stereo not shown) [Compound 153, {2-[4-(6,7-dimethoxyquinazolin-4-yl)phenyl]ethyl}(imino)methyl-λ^6-sulfanone], the IC50 is 10 to 1000 nM against ENPP-1 ECD [3] (setting [7]) and 54 nM at ENPP-1 ECD [3] (setting [8]). Moreover, the Ki on ENPP-1 ECD [2] (setting [9]) was 3 to 300 nM; at ENPP-1 ECD [2] (setting [10]), 12 nM.
On to `COc1ccc2c(-c3ccc(CNS(C)(=N)=O)cc3)ccnc2c1` (stereo not shown) [Compound 162, N-{[4-(7-methoxyquinolin-4-yl)phenyl]methyl}methanesulfonoimidamide], for which the values for the IC50 on ENPP-1 ECD [3] (setting [7]) and against ENPP-1 ECD [3] (setting [8]) were 10 to 1000 nM and 40 nM, respectively. The Ki at ENPP-1 ECD [2] (setting [9]) was 3 to 300 nM; on ENPP-1 ECD [2] (setting [10]), 6.9 nM.
Regarding `COc1ccc2c(N3CCC(CCS(C)(=N)=O)CC3)ncnc2c1OC` (stereo not shown) [Compound 165, (2-(1-(7,8-dimethoxyquinazolin-4-yl)piperidin-4-yl)ethyl)(imino)(methyl)-l6-sulfanone], the IC50 is above 30000 nM at ENPP-1 ECD [3] (setting [8]) and above 1000 nM at ENPP-1 ECD [3] (setting [11]). In addition, the Ki on ENPP-1 ECD [2] (setting [9]) is above 300 nM; on ENPP-1 ECD [2] (setting [10]), 1400 nM.
